According to patent US20080200535A1, “Amine Compounds” (Asahi Kasei Pharma Corporation, priority 2006, published 2008):

Tests used:
S1P1 receptor = biological target: T1, S1P1 receptor (Homo sapiens, UniProt P21453); assay: 35S-GTPγS binding assay using membrane preparation of CHO cell stably expressing S1P1 receptor; format: biochemical; details: agonist activity
T1 construct: expressed in transfected cells; membrane preparation
Experimental: ^35s-GTPγS binding assay using membrane preparation of CHO cell stably expressing S1P1 receptor
A G protein-GTPγS binding test associated with a ligand was performed by using a membrane preparation which was obtained from a CHO cell which stably overexpressed S1P1 receptor. In a 96 well-micro-titer dish, the produced membrane protein and a compound which was diluted with a solvent such as DMSO or sphingosine-1-phosphate in various concentrations was incubated in a solution containing 20 mM of Tris-Cl (pH7.5), 100 mM of NaCl, 10 mM of MgCl2, 5μM of GDP, 0.1% of BSA, and […] of ^35s-GTPγS (specific radioactivity, 1250 Ci mmol). The binding was performed for 1 or more hours at room temperature, and the membrane was harvested on a GF/B filter plate by using a Millipore's MultiScreen Separation System to end the binding. After the filter plate was dried for 30 or more minutes, 25 μL of MicroScint-20 was added to each well, and the binding was measured by using the TopCount.
For the agonist activity of compound, the value of a well which a solvent was added to was set to a control value and compared with an increment of an evaluation compound-added well, so that the increment of each concentration of the compound was obtained. EC50 value was calculated under the definition that the value is an agonist concentration required to provide 50% of the maximum increment thereof. […]

peripheral lymphocytes = assay: Evaluation of reduction in peripheral blood lymphocyte count; format: in vivo; details: 3 h; rat, oral; dose required to reduce the lymphocyte count by 50% in three hours from the administration
Experimental: Evaluation of Reduction in Peripheral Blood Lymphocyte count
A compound or a solvent was orally administered to a rat. When 3, 6, 24, 48, and 72 hours had elapsed since the administration of compound, blood was withdrawn from its tail vein. All the blood samples were analyzed hematologically. The total count of peripheral lymphocytes was measured by using an auto-analyzer (Sysmex 2000Xi). The effect of each compound to the total count of peripheral lymphocytes was evaluated by using three or more rats in one group. The reduction in lymphocyte count caused by the administration of compound was compared with that caused by the administration of solvent to a rat group. Namely, the average lymphocyte count of a solvent-administered group was set to 100%, and a control value (%) was calculated from the average lymphocyte count of a compound-administered group. An ED50 value, that is, a dosed amount of the compound required to reduce the lymphocyte count by 50% in three hours from the administration was calculated from the dosed amount of the compound and the control value (%).

S1P3 receptor = biological target: T2, S1P3 receptor (Homo sapiens, UniProt Q99500); assay: 35S-GTPγS binding assay using membrane preparation of CHO cell temporarily expressing S1P3 receptor; format: biochemical; details: agonist activity, membrane of CHO cell temporarily transfected with S1P3 gene
T2 construct: expressed in transfected cells; host or cells: CHO cells, transient transfection; membrane protein
Experimental: ^35s-GTPγS binding assay using membrane preparation of CHO cell of temporarily expressing S1P3 receptor
A GTPγS binding test associated with S1P3 receptor was performed by using the same method as that of the GTPγS binding test associated with S1P1 receptor. In the test, a membrane protein which was produced from a CHO cell in which S1P3 gene was temporarily transfected was used.
For the agonist activity of compound, the value of a well which a solvent was added to was set to a control value and compared with an increment of an evaluation compound-added well, so that the increment of each concentration of the compound was obtained. EC50 value was calculated under the definition that the value is an agonist concentration required to provide 50% of the highest increment thereof.

adjuvant arthritis rat = assay: Adjuvant-induced arthritis model; format: in vivo; details: 504 h, Lewis female rats, oral once daily for 21 days, dose required to suppress swelling of hind paw by 50% on the 21-th day
Experimental: Adjuvant-Induced Arthritis Model
7-weeks old Lewis female rats are used for evaluation. The volume of a hind paw of a rat was measured. As an adjuvant, 500 μg/100 μL of M. tuberclulosis H37 RA (manufactured by Difco) is subcutaneously injected into the plantar of the left hind paw, so that an adjuvant arthritis rat is produced. A compound which is suspended in a 1% methylcellulose solution is forcibly oral-administered to the stomach by using an oral sonde one-time everyday for 21 days from the injection date of the adjuvant. The evaluation of arthritis is performed by measuring the volume of paw of each tested subject by using PLETHYSMOMETER (manufactured by UGO BASILE) and comparing the measured deta of a compound-administered group with those of a solvent-administered group. Swelling of the plantar portion of hind leg of the solvent-administered group was set to 100%, and a control value (%) was calculated from the swelling of the compound-administered group. An ED50 value, that is, a dosed amount of the compound required to suppress the swelling of the plantar portion of hind paw on the 21-th day from the administration date of the adjuvant by 50% was calculated from the dosed amount of the compound and the control value (%).

T1 sequence (P21453 whole entry): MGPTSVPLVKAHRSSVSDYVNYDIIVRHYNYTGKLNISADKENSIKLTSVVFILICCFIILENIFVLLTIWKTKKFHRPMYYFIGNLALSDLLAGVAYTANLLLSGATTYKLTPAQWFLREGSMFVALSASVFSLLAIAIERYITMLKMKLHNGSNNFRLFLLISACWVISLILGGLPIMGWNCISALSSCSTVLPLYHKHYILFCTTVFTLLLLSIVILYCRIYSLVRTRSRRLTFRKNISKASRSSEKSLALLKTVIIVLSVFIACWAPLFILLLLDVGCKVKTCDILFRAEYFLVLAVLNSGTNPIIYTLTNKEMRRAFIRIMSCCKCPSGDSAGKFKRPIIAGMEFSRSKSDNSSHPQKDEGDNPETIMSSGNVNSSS
T2 sequence (Q99500 whole entry): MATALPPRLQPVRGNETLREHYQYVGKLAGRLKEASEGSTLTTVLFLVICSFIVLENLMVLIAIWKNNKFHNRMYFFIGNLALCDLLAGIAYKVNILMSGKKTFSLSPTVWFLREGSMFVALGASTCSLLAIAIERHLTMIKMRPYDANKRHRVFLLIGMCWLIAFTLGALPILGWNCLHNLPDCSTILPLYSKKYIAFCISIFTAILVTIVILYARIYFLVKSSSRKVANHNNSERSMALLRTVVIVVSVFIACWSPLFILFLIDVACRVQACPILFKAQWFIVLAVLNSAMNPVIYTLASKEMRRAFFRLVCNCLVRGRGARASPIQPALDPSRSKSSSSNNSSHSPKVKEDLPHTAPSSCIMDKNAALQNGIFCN

| SMILES | EC50 (S1P1 receptor) | ED50 (peripheral lymphocytes) | EC50 (S1P3 receptor) | ED50 (adjuvant arthritis rat) |
| --- | --- | --- | --- | --- |
| Cc1cc(CNC2CC(C(=O)O)C2)ccc1-c1noc(-c2ccc(-c3ccccc3C#N)c(C)c2)n1 (stereo not shown) [Example 147] | 2400 pM | 0.72 mg/kg |  |  |
| Cl.O=C(O)CCNCc1ccc(-c2noc(-c3ccc(-c4ccccc4)c(C(F)(F)F)c3)n2)cc1 [Example 94] | 250 pM | 0.087 mg/kg |  |  |
| Cl.N#Cc1ccccc1-c1ccc(-c2nc(-c3ccc(CNCCC(=O)O)cc3)no2)cc1OC(F)(F)F [Example 106] | 1200 pM | 0.5 mg/kg |  |  |
| CC(C)Cc1ccc(-c2nc(-c3ccc(CNCCC(=O)O)cc3)no2)cc1.Cl [Example 40] | 500 pM | 0.71 mg/kg |  |  |
| Cc1cc(-c2nc(-c3ccc(CNCCC(=O)O)cc3)no2)ccc1-c1ccoc1.Cl [Example 117] | 70 pM | 0.88 mg/kg |  |  |
| O=C(O)[C@H]1CCC[C@H](NCc2ccc(OCc3cc(-c4ccccc4)c(C(F)(F)F)s3)cc2)C1 [Example 4] | 34000 pM |  | 870000 pM |  |
| O=C(O)C1CC(NCc2ccc(OCc3cc(-c4ccccc4)c(C(F)(F)F)s3)cc2)C1 (stereo not shown) [Example 6] |  | 5.1 mg/kg |  |  |
| Cl.O=C(O)CCNCc1ccc(-c2noc(-c3ccc(CCC(F)(F)F)cc3)n2)cc1 [Example 104] | 2100 pM | 0.7 mg/kg |  |  |
| Cl.O=C(O)CCNCc1ccc(-c2noc(-c3ccc(-c4ccccc4)c(OC(F)(F)F)c3)n2)cc1 [Example 105] | 490 pM | 0.084 mg/kg |  |  |
| Cl.N#Cc1ccccc1-c1ccc(-c2nc(-c3ccc(CNCCC(=O)O)cc3)no2)cc1C(F)(F)F [Example 93] | 480 pM | 0.64 mg/kg |  |  |
| Cc1cc(-c2nc(-c3ccc(CNCCC(=O)O)cc3)no2)ccc1-c1ccccc1.Cl [Example 54] | 340 pM | 0.44 mg/kg |  | 0.33 mg/kg |
| O=C(O)[C@H]1CC[C@H](NCc2ccc(OCc3cc(-c4ccccc4)c(C(F)(F)F)s3)cc2)C1 [Example 25] | 4000 pM |  | 117000 pM |  |
| Cl.O=C(O)CCNCc1ccc(-c2noc(C3CCC(c4ccccc4)CC3)n2)cc1 (stereo not shown) [Example 61] | 1500 pM | 0.53 mg/kg |  |  |
| CC(C)Oc1ccc(-c2nc(-c3ccc(CN[C@H]4C[C@H](C(=O)O)C4)cc3)no2)cc1C(F)(F)F [Example 135] | 720 pM | 0.16 mg/kg |  | 0.21 mg/kg |
| Cc1cc(-c2nc(-c3ccc(CNCCC(=O)O)cc3)no2)ccc1-c1ccccc1C#N.Cl [Example 78] | 260 pM | 0.37 mg/kg |  |  |
| Cl.N#Cc1ccccc1-c1ccc(-c2nc(-c3ccc(CNCCC(=O)O)cc3)no2)cc1C#N [Example 90] | 1400 pM | 4.1 mg/kg |  |  |
| CC(C)COc1ccc(-c2nc(-c3ccc(CNCCC(=O)O)cc3)no2)cc1C(F)(F)F.Cl [Example 46] | 500 pM | 2.1 mg/kg |  |  |
| Cc1cc(CNCCC(=O)O)ccc1-c1noc(-c2ccc(-c3ccccc3C#N)c(C)c2)n1 [Example 145] | 200 pM | 0.46 mg/kg |  |  |
